What all share (type): in vivo
Data set [1] deals with Cyperus difformis. Kind of data set: Test Example 3: herbicidal effect by foliage application, Wagner pot (symbol E). The note with it: application herbicide amount 320 g/ha; for E herbicidal effect grade: Table 24. Put shortly: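 Post-emergence, paddy-type test: seedlings 14 d old in shallow-flooded (0.1–0.5 cm) alluvial soil, 25–30 °C greenhouse. Emulsion diluted to target rate, sprayed on leaves. Read-out: visual effect on each species at 3 weeks, per set criteria.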

Data set [2] concerns rice. Kind of data set: Test Example 4: effect on crop by soil treatment (symbol b). Particulars: for Effect on crop grade, b: directly sowed rice plant: application herbicide amount 320 g/ha. The method, boiled down: (§1)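 Soil-treatment setup: crop and weed seeds were spot-sown into sterilized diluvial soil, then buried beneath approximately 1.5 cm of it, and the boxes were housed in a 25–30° C. greenhouse.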

Data set [3] has as its system Setaria viridis. Kind of data set: Test Example 5: herbicidal effect by foliage application, plastic box (symbol G). Particulars: 320 g/ha, 3 weeks after application. Put shortly:
(§2)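 Post-emergence spray; diluvial soil (sterilized), ~1.5 cm seed cover; greenhouse 25–30° C; 14-day-old plants; water-diluted emulsion at predetermined dose; visual score at 3 wk post-treatment.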

The test system of data set [4] is soybean. Kind of data set: Test Example 4: effect on crop by soil treatment (symbol d). Particulars: for Effect on crop grade, d: soybean: application herbicide amount 320 g/ha. Put shortly: as §1
Data set [5] deals with Setaria viridis. Briefly: Test Example 4: herbicidal effect by soil treatment (symbol G). The note with it: for Herbicidal effect grade, G: Setaria viridis: application herbicide amount 320 g/ha. The method, boiled down:
(§3)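 Seeds were sown in sterilized diluvial soil, covered with about 1.5 cm of soil, and the soil surface was sprayed with a water-diluted emulsion of the compound at a predetermined rate. Plants grew in a greenhouse at 25° C. to 30° C.; effects were scored visually 3 weeks after application.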

Data set [6] relates to wheat. Kind of data set: Test Example 4: effect on crop by soil treatment (symbol e). Particulars: for Effect on crop grade, e: wheat: application herbicide amount 320 g/ha. The method, boiled down: as §1
Data set [7] relates to Alopecurus myosuroides. Briefly: Test Example 4: herbicidal effect by soil treatment (symbol J). Particulars: for Herbicidal effect grade, J: Alopecurus myosuroides: application herbicide amount 320 g/ha. Put shortly:
as §3

Data set [8] deals with Lolium multiflorum Lam. Briefly: Test Example 4: herbicidal effect by soil treatment (symbol K). The note with it: for Herbicidal effect grade, K: Lolium multiflorum Lam.: application herbicide amount 320 g/ha. The method, boiled down: as §3
The subject of data set [9] is Veronica persica. Briefly: Test Example 4: herbicidal effect by soil treatment (symbol R). Particulars: for Herbicidal effect grade, R: Veronica persica: application herbicide amount 320 g/ha. Put shortly:
as §3

Data set [10] relates to Avena fatua. Kind of data set: Test Example 5: herbicidal effect by foliage application, plastic box (symbol I). Particulars: 320 g/ha, 3 weeks after application. The method, boiled down:
as §2

Data set [11] deals with Amaranthus retroflexus. Kind of data set: Test Example 5: herbicidal effect by foliage application, plastic box (symbol N). Particulars: 320 g/ha, 3 weeks after application. The method, boiled down:
as §2

In data set [12] the test system is Veronica persica. Briefly: Test Example 5: herbicidal effect by foliage application, plastic box (symbol R). Particulars: 320 g/ha, 3 weeks after application. The method, boiled down: as §2
For data set [13], the system named is Apera spica-venti. Briefly: Test Example 4: herbicidal effect by soil treatment (symbol L). Particulars: for Herbicidal effect grade, L: Apera spica-venti: application herbicide amount 320 g/ha. The method, boiled down:
as §3

Data set [14] has as its system soybean. Kind of data set: Test Example 5: effect on crop by foliage application, plastic box (symbol d). The note with it: 320 g/ha, 3 weeks after application. Put shortly: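 Box culture: sterile diluvial soil, seeds spot-sown, ~1.5 cm cover, raised under glass at 25–30° C.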
The test system of data set [15] is corn. Briefly: Test Example 4: effect on crop by soil treatment (symbol c). Particulars: for Effect on crop grade, c: corn: application herbicide amount 320 g/ha. Put shortly: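 Sterilized diluvial soil, spot sowing, ~1.5 cm soil cover; greenhouse 25–30° C.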
Data set [16] deals with Galium spurium. Kind of data set: Test Example 4: herbicidal effect by soil treatment (symbol Q). Particulars: for Herbicidal effect grade, Q: Galium spurium: application herbicide amount 320 g/ha. Put shortly: as §3
Data set [17] relates to Lolium multiflorum Lam. Kind of data set: Test Example 5: herbicidal effect by foliage application, plastic box (symbol K). The note with it: 320 g/ha, 3 weeks after application. Put shortly:
as §2

Data set [18] relates to Alopecurus myosuroides. Kind of data set: Test Example 5: herbicidal effect by foliage application, plastic box (symbol J). Particulars: 320 g/ha, 3 weeks after application. The method, boiled down: as §2
Data set [19] deals with Echinochloa oryzacola Vasing. Briefly: Test Example 1: herbicidal activity, application before weed generation in submerged conditions (symbol A). The note with it: application herbicide amount 320 g/ha. Put shortly: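 Greenhouse growth at 25–30 °C lasted 3 weeks after treatment, when each weed was graded 0–5 by herbicidal ratio. Treatment was a diluted emulsion applied to the water surface of 4 cm-submerged alluvial soil on the sowing day.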

With `CCCON=C(C)CC1CC(O)=C(c2c(C)cc(C)cc2C)C1=O` (stereo not drawn) [1-123], the “herbicidal effect on E, grade 0-5” value in data set [1] was 4 (Herbicidal ratio of 70% or higher and lower than 90%). Moreover, the “b: directly sowed rice plant, effect grade on crop” value in data set [2] (320 g/ha) is recorded as 5 (Herbicidal ratio of 90% or more (almost completely withered)). For the same compound, the “G: Setaria viridis, herbicidal effect (criteria 0-5)” value in data set [3] is listed as 5 (Herbicidal ratio of 90% or more (almost completely withered)). Besides, in data set [4] (320 g/ha), the “d: soybean, effect grade on crop” value is reported as 0 (Herbicidal ratio of 5% or lower (almost no effect)). The “G: Setaria viridis, herbicidal effect grade” value in [5] (320 g/ha) is recorded as 5 (Herbicidal ratio of 90% or more (almost completely withered)). Further, in [6] (320 g/ha), the “e: wheat, effect grade on crop” value was 0 (Herbicidal ratio of 5% or lower (almost no effect)). For the same compound, the “J: Alopecurus myosuroides, herbicidal effect grade” value in [7] (320 g/ha) is 5 (Herbicidal ratio of 90% or more (almost completely withered)). In data set [8] (320 g/ha), the “K: Lolium multiflorum Lam., herbicidal effect grade” value is 5 (Herbicidal ratio of 90% or more (almost completely withered)). In data set [9] (320 g/ha), the “R: Veronica persica, herbicidal effect grade” value is reported as 0 (Herbicidal ratio of 5% or lower (almost no effect)). In [10], the “I: Avena fatua, herbicidal effect (criteria 0-5)” value is reported as 5 (Herbicidal ratio of 90% or more (almost completely withered)). In addition, in [11], the “N: Amaranthus retroflexus, herbicidal effect (criteria 0-5)” value is 0 (Herbicidal ratio of 5% or lower (almost no effect)). Also, in data set [12], the “R: Veronica persica, herbicidal effect (criteria 0-5)” value is 4 (Herbicidal ratio of 70% or higher and lower than 90%). Besides, in [13] (320 g/ha), the “L: Apera spica-venti, herbicidal effect grade” value is 5 (Herbicidal ratio of 90% or more (almost completely withered)). The “d: soybean, effect on crop (criteria 0-5)” value in data set [14] was 2 (Herbicidal ratio of 20% or higher and lower than 40%). Besides, the “c: corn, effect grade on crop” value in data set [15] (320 g/ha) is 3 (Herbicidal ratio of 40% or higher and lower than 70%). The “Q: Galium spurium, herbicidal effect grade” value in data set [16] (320 g/ha) was 0 (Herbicidal ratio of 5% or lower (almost no effect)). Besides, the “K: Lolium multiflorum Lam., herbicidal effect (criteria 0-5)” value in data set [17] is given as 5 (Herbicidal ratio of 90% or more (almost completely withered)). In data set [18], the “J: Alopecurus myosuroides, herbicidal effect (criteria 0-5)” value is on record as 5 (Herbicidal ratio of 90% or more (almost completely withered)). For the same compound, the “Herbicidal effect grade, A: Echinochloa oryzacola Vasing.” value in data set [19] is listed as 5 (Herbicidal ratio of 90% or more (almost completely withered)).

With `CON=C(C)CC1(C)CC(O)=C(c2c(C)cc(C)cc2C)C1=O` (mixture of isomers) [11-002], the “E herbicidal effect grade” value in data set [1] was 4 (Herbicidal ratio of 70% or higher and lower than 90%). In data set [2], the “Effect on crop grade, b: directly sowed rice plant” value was 4 (Herbicidal ratio of 70% or higher and lower than 90%). The “G: Setaria viridis, herbicidal effect grade” value in data set [3] is 4 (Herbicidal ratio of 70% or higher and lower than 90%). For the same compound, the “Effect on crop grade, d: soybean” value in data set [4] is given as 0 (Herbicidal ratio of 5% or lower (almost no effect)). Besides, the “Herbicidal effect grade, G: Setaria viridis” value in data set [5] was 1 (Herbicidal ratio of 5% or higher and lower than 20%). The “Effect on crop grade, e: wheat” value in data set [6] is given as 0 (Herbicidal ratio of 5% or lower (almost no effect)). The “Herbicidal effect grade, J: Alopecurus myosuroides” value in data set [7] was 3 (Herbicidal ratio of 40% or higher and lower than 70%). Also, the “Herbicidal effect grade, K: Lolium multiflorum Lam.” value in [8] is listed as 5 (Herbicidal ratio of 90% or more (almost completely withered)). In data set [9], the “Herbicidal effect grade, R: Veronica persica” value was 0 (Herbicidal ratio of 5% or lower (almost no effect)). The “I: Avena fatua, herbicidal effect grade” value in [10] is on record as 5 (Herbicidal ratio of 90% or more (almost completely withered)). For the same compound, in [11], the “N: Amaranthus retroflexus, herbicidal effect grade” value was 0 (Herbicidal ratio of 5% or lower (almost no effect)). Moreover, the “R: Veronica persica, herbicidal effect grade” value in data set [12] is reported as 0 (Herbicidal ratio of 5% or lower (almost no effect)). Besides, the “Herbicidal effect grade, L: Apera spica-venti” value in data set [13] is 4 (Herbicidal ratio of 70% or higher and lower than 90%). The “d: soybean, effect on crop grade” value in [14] is 1 (Herbicidal ratio of 5% or higher and lower than 20%). Further, the “Effect on crop grade, c: corn” value in data set [15] is 1 (Herbicidal ratio of 5% or higher and lower than 20%). Further, the “Herbicidal effect grade, Q: Galium spurium” value in data set [16] is 0 (Herbicidal ratio of 5% or lower (almost no effect)). Besides, the “K: Lolium multiflorum Lam., herbicidal effect grade” value in data set [17] was 5 (Herbicidal ratio of 90% or more (almost completely withered)). In data set [18], the “J: Alopecurus myosuroides, herbicidal effect grade” value was 5 (Herbicidal ratio of 90% or more (almost completely withered)). In addition, the “A (Echinochloa oryzacola Vasing.) herbicidal effect grade” value in [19] was 2 (Herbicidal ratio of 20% or higher and lower than 40%).

Consider `CON=C(CC1CC(O)=C(c2c(C)cc(-n3cc(Cl)cn3)cc2C)C1=O)C1CC1` (stereo not drawn) [9-007], for which the “E herbicidal effect grade” value in data set [1] is 5 (Herbicidal ratio of 90% or more (almost completely withered)). For the same compound, the “Effect on crop grade, b: directly sowed rice plant” value in data set [2] is 5 (Herbicidal ratio of 90% or more (almost completely withered)). The “G: Setaria viridis, herbicidal effect grade” value in data set [3] is 5 (Herbicidal ratio of 90% or more (almost completely withered)). For the same compound, the “Effect on crop grade, d: soybean” value in data set [4] is recorded as 0 (Herbicidal ratio of 5% or lower (almost no effect)). The “Herbicidal effect grade, G: Setaria viridis” value in data set [5] was 5 (Herbicidal ratio of 90% or more (almost completely withered)). Moreover, the “Effect on crop grade, e: wheat” value in [6] was 0 (Herbicidal ratio of 5% or lower (almost no effect)). Moreover, in [7], the “Herbicidal effect grade, J: Alopecurus myosuroides” value was 5 (Herbicidal ratio of 90% or more (almost completely withered)). Besides, in [8], the “Herbicidal effect grade, K: Lolium multiflorum Lam.” value was 5 (Herbicidal ratio of 90% or more (almost completely withered)). For the same compound, the “Herbicidal effect grade, R: Veronica persica” value in [9] is 0 (Herbicidal ratio of 5% or lower (almost no effect)). Besides, the “I: Avena fatua, herbicidal effect grade” value in data set [10] is 5 (Herbicidal ratio of 90% or more (almost completely withered)). The “N: Amaranthus retroflexus, herbicidal effect grade” value in data set [11] is on record as 0 (Herbicidal ratio of 5% or lower (almost no effect)). Also, the “R: Veronica persica, herbicidal effect grade” value in data set [12] is 4 (Herbicidal ratio of 70% or higher and lower than 90%). For the same compound, the “Herbicidal effect grade, L: Apera spica-venti” value in [13] is 5 (Herbicidal ratio of 90% or more (almost completely withered)). The “d: soybean, effect on crop grade” value in [14] was 0 (Herbicidal ratio of 5% or lower (almost no effect)). Further, the “Effect on crop grade, c: corn” value in data set [15] is 0 (Herbicidal ratio of 5% or lower (almost no effect)). Also, the “Herbicidal effect grade, Q: Galium spurium” value in data set [16] is recorded as 0 (Herbicidal ratio of 5% or lower (almost no effect)). Also, the “K: Lolium multiflorum Lam., herbicidal effect grade” value in data set [17] is given as 5 (Herbicidal ratio of 90% or more (almost completely withered)). For the same compound, the “J: Alopecurus myosuroides, herbicidal effect grade” value in [18] is given as 5 (Herbicidal ratio of 90% or more (almost completely withered)). Also, the “A (Echinochloa oryzacola Vasing.) herbicidal effect grade” value in [19] was 5 (Herbicidal ratio of 90% or more (almost completely withered)).

(Values after patent US11000033B2, “Ketone or oxime compound, and herbicide” (NISSAN CHEMICAL CORPORATION, priority 2014, dated 2021).)
